# Experimental data from ChEMBL document CHEMBL1138074, “SAR studies of 2-methoxyestradiol and development of its analogs as probes of anti-tumor mechanisms” (Bioorg Med Chem Lett, 2006).
# Tested on: LNCaP
# Experiment: Antiproliferative activity against human LNCaP cell line
# Format: functional, cell-based
# Conditions: Homo sapiens, LNCaP; read-out: IC50; call rule not given here
row,IC50 [nM],SMILES
1,900,COc1cc2c(cc1O)CC[C@@H]1[C@@H]2CC[C@]2(C)[C@@H](OC(=O)CN)CC[C@@H]12
2,600,COc1cc2c(cc1O)CC[C@@H]1[C@@H]2CC[C@]2(C)[C@@H](OC(=O)CNC(=O)CCCCCNC(=O)CCCC[C@@H]3SC[C@@H]4NC(=O)N[C@@H]43)CC[C@@H]12

# The remaining lines, values behind:
row,SMILES,IC50 [nM]
1,COc1cc2c(cc1O)CC[C@@H]1[C@@H]2CC[C@]2(C)[C@@H](OC(=O)CNC(=O)CCCCCNC(=O)OC(C)(C)C)CC[C@@H]12,600
2,COc1cc2c(cc1O)CC[C@@H]1[C@@H]2CC[C@]2(C)[C@@H](OC(=O)CNC(=O)CCCCCN)CC[C@@H]12,600
3,COc1cc2c(cc1O)CC[C@@H]1[C@@H]2CC[C@]2(C)[C@@H](O)CC[C@@H]12 [2-METHOXYESTRADIOL],500

# Same assay, conditions: lncap
row,IC50,SMILES
1,Not Active,COc1cc2c(cc1O)CC[C@@H]1[C@@H]2CC[C@]2(C)[C@@H](OC(=O)CNC(=O)OCC3c4ccccc4-c4ccccc43)CC[C@@H]12
